Measured values published in the supplement of paper PMC10307832.

Experiments:
Experiment in all cases: relative viability (nuclei count vs DMSO), 5 days (fraction); higher = more cells survive
[1] = compound: O=C(NC1CCNCC1)c1n[nH]cc1NC(=O)c1c(Cl)cccc1Cl [AT-7519] + CC1(C)CCC(c2ccc(Cl)cc2)=C(CN2CCN(c3ccc(C(=O)NS(=O)(=O)c4ccc(N[C@H](CCN5CCOCC5)CSc5ccccc5)c(S(=O)(=O)C(F)(F)F)c4)cc3)CC2)C1 [Navitoclax] (partner 0.5 µM)
In short: (§1)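 The day after seeding in 1536-well plates, lung cancer cell lines were treated by pin tool with a single drug, or with a fixed anchor-drug dose together with five library-drug doses (not always all listed) in √10 steps. After 5 days, a combined fix-and-stain solution (final 0.05% Triton X-100, 1% formaldehyde, 1 ug/ml Hoechst) was added. Nuclei counted on 4× images gave relative viability as treated counts over vehicle counts, reported as the median of duplicate plates.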

[2] = compound: C1=CC2=C(C=C(C(=C2N=C1)O)N=NC3=CC4=C(C=C3)C=C(C=C4)S(=O)(=O)O)S(=O)(=O)O + O=C(CCCCCCC(=O)Nc1ccccc1)NO [Vorinostat] (partner 1 µM)
In short: as §1

[3] = compound: O=C(NC1CCNCC1)c1n[nH]cc1NC(=O)c1c(Cl)cccc1Cl [AT-7519] + CC(=O)Nc1cccc(-n2c(=O)n(C3CC3)c(=O)c3c(Nc4ccc(I)cc4F)n(C)c(=O)c(C)c32)c1 [Trametinib] (partner 0.02 µM)
In short: as §1

[4] = compound: C1=CC2=C(C=C(C(=C2N=C1)O)N=NC3=CC4=C(C=C3)C=C(C=C4)S(=O)(=O)O)S(=O)(=O)O + COc1cc2c(Oc3ccc(NC(=O)C4(C(=O)Nc5ccc(F)cc5)CC4)cc3F)ccnc2cc1OCCCN1CCOCC1 [Foretinib] (partner 0.25 µM)
In short: as §1

| Cell Line | relative viability ([1]; first compound 0.01 µM) | relative viability ([1]; first compound 0.03162 µM) | relative viability ([1]; first compound 0.3162 µM) | relative viability ([1]; first compound 1 µM) | relative viability ([2]; first compound 0.08 µM) | relative viability ([2]; first compound 0.253 µM) | relative viability ([2]; first compound 0.8 µM) | relative viability ([2]; first compound 2.53 µM) | relative viability ([2]; first compound 8 µM) | relative viability ([3]; first compound 0.01 µM) | relative viability ([3]; first compound 0.03162 µM) | relative viability ([3]; first compound 0.3162 µM) | relative viability ([3]; first compound 1 µM) | relative viability ([4]; first compound 0.08 µM) | relative viability ([4]; first compound 0.253 µM) | relative viability ([4]; first compound 0.8 µM) | relative viability ([4]; first compound 2.53 µM) | relative viability ([4]; first compound 8 µM) |
| --- | --- | --- | --- | --- | --- | --- | --- | --- | --- | --- | --- | --- | --- | --- | --- | --- | --- | --- |
| HCC-15 | 0.632 | 0.639 | 0.647 | 0.351 | 0.818 | 0.857 | 0.779 | 0.826 | 0.827 | 0.404 | 0.371 | 0.374 | 0.24 | 1.15 | 0.972 | 0.936 | 1.07 | 0.985 |
| HCC-44 | 1.01 | 0.86 | 0.997 | 0.958 | 1.22 | 1.08 | 1.08 | 1.11 | 0.995 | 1.1 | 1.04 | 1.06 | 0.716 |  |  |  |  |  |
| HCC-78 | 0.743 | 0.664 | 0.901 | 0.685 | 0.437 | 0.471 | 0.458 | 0.437 | 0.434 | 0.688 | 0.712 | 0.963 | 0.46 | 0.608 | 0.571 | 0.525 | 0.563 | 0.3 |
| HCC-366 | 1.07 | 1.16 | 1.07 | 0.672 | 0.442 | 0.463 | 0.392 | 0.338 | 0.328 | 0.323 | 0.281 | 0.316 | 0.17 | 0.927 | 0.92 | 0.891 | 0.964 | 0.851 |
| HCC-827 | 0.991 | 1.1 | 0.996 | 0.995 | 0.926 | 0.813 | 0.826 | 0.876 | 0.785 | 0.488 | 0.519 | 0.542 | 0.28 | 1.12 | 0.955 | 0.995 | 1.05 | 1.08 |
| HOP-62 | 0.824 | 0.983 | 1.01 | 0.923 | 0.438 | 0.693 | 0.602 | 0.619 | 0.6 | 0.344 | 0.347 | 0.401 | 0.176 | 1.23 | 1.03 | 1.13 | 1.15 | 1.04 |
| IA-LM | 0.917 | 0.865 | 0.69 | 0.435 | 1.09 | 0.95 | 0.97 | 1.04 | 0.935 |  |  |  |  | 1.3 | 1.01 | 1.1 | 1.18 | 1.12 |
| LC-2-ad | 0.312 | 0.487 | 0.367 | 0.214 | 0.702 | 0.744 | 0.729 | 0.699 | 0.725 | 0.892 | 0.936 | 0.933 | 0.506 | 1.13 | 0.874 | 0.966 | 0.906 | 0.865 |
| LCLC-103H |  |  |  |  | 0.797 | 0.784 | 0.827 | 0.785 | 0.859 | 0.686 | 0.682 | 0.72 | 0.587 | 0.87 | 0.852 | 0.684 | 0.749 | 0.747 |
| NCI-H358 |  |  |  |  | 0.676 | 0.711 | 0.628 | 0.748 | 0.701 | 0.127 | 0.13 | 0.253 | 0.0967 | 0.778 | 0.61 | 0.635 | 0.651 | 0.884 |
| NCI-H522 |  |  |  |  | 0.98 | 1.01 | 0.943 | 0.999 | 0.977 | 0.717 | 0.835 | 0.757 | 0.717 |  |  |  |  |  |
| NCI-H650 |  |  |  |  | 0.435 | 0.472 | 0.416 | 0.413 | 0.175 | 1.02 | 0.924 | 1.04 | 0.348 | 1.13 | 1.07 | 1.01 | 1.02 | 1.06 |
| NCI-H661 |  |  |  |  | 0.765 | 0.756 | 0.783 | 0.785 | 0.796 | 0.549 | 0.565 | 0.508 | 0.203 | 1.12 | 0.989 | 0.981 | 1.08 | 1.04 |
| NCI-H1299 | 1.12 | 1.02 | 1.08 | 1.24 |  |  |  |  |  |  |  |  |  | 1.17 | 1.04 | 1.04 | 1.09 | 1.06 |
| NCI-H1563 |  |  |  |  |  |  |  |  |  |  |  |  |  | 1.04 | 1.02 | 0.91 | 0.996 | 0.895 |
| NCI-H1623 |  |  |  |  |  |  |  |  |  |  |  |  |  | 0.845 | 0.874 | 0.854 | 0.832 | 0.6 |
| NCI-H1648 |  |  |  |  |  | 0.825 |  |  | 0.479 | 0.39 |  | 0.366 | 0.335 |  |  |  |  |  |
| NCI-H1703 | 0.956 | 1.01 | 1.01 | 0.225 |  |  |  |  |  |  |  |  |  | 0.334 |  | 0.356 | 0.363 | 0.302 |
| NCI-H1792 | 0.406 | 0.552 | 0.642 | 0.752 |  |  |  |  |  | 0.399 | 0.4 | 0.506 | 0.225 |  |  |  |  |  |
| NCI-H2342 |  |  |  |  | 0.834 | 0.709 | 0.72 | 0.695 | 0.688 | 0.779 | 0.784 | 0.809 | 0.817 | 1.22 | 1.1 | 1.15 | 1.11 | 1.05 |
| SW 900 |  |  |  |  | 0.624 | 0.399 | 0.604 | 0.611 | 0.426 | 0.986 | 0.744 | 0.659 | 0.401 | 0.806 | 0.9 | 0.912 | 0.786 | 0.741 |
